This assay addresses GABA-A receptor (Rattus norvegicus). Nature of the assay: Affinity for gamma-aminobutyric-acid A receptor measured by its ability to displace [3H]gabazine antagonist from rat brain preparations.

Broadly, the IC50 is the concentration that gives 50% inhibition. High values mean weaker potency in that assay, low ones greater potency in that assay.

Structures are written as SMILES.

Turning to `N=c1ccc(-c2ccsc2)nn1Cc1cc(=O)[nH]o1`, the IC50 worked out at 88 nM.
Then `Cc1cc(-c2ccccc2)nn(CCCC(=O)O)c1=N`, with 800 nM.

The values above are taken from BindingDB's records for doi:10.1021/jm00100a015 (Centre De Neurochimie Du Cnrs, 1992).
